Biological target: T1, human 5HT2c receptor (VSV isoform) (Homo sapiens, UniProt P28335, I156V/I160V/N158S)
T1 construct: expressed in transfected cells; host or cells: HEK 293 EBNA, stably transfected
T1 sequence (P28335 33-458 I156V/N158S/I160V): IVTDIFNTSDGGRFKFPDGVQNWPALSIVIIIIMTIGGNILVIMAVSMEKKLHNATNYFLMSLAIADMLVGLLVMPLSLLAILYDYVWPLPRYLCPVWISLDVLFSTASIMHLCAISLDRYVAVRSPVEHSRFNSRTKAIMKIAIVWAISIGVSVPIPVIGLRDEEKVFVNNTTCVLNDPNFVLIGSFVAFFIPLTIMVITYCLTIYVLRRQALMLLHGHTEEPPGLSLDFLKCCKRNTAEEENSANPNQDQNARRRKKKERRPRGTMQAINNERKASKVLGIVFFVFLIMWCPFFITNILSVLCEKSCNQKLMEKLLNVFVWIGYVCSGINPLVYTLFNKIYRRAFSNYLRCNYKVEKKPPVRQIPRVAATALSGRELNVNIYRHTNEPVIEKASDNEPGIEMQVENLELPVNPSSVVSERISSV
Assay: cell-based

CCn1ccc2sc3c(c21)CCNCC3 [Example 1, 3,4,5,6,7,8-Hexahydro-9-thia-3,6-diaza-cyclopenta[a]alazulene] and Cc1ccccc1Cn1ccc2sc3c(c21)CCNCC3 [Example 6, 3-(2-Methyl-benzyl)-3,4,5,6,7,8-hexahydro-9-thia-3,6-diaza-cyclopenta[a]azulene] cannot be ordered by EC50: < 10 nM for the first, < 10 nM for the second.

c1ccc(Cn2ccc3sc4c(c32)CCNCC4)cc1 [Example 4, 3-Benzyl-3,4,5,6,7,8-hexahydro-9-thia-3,6-diaza-cyclopenta[a]azulene] and Clc1cccc(Cn2ccc3sc4c(c32)CCNCC4)c1 [Example 10] cannot be ordered by EC50: < 10 nM for the first, < 10 nM for the second.

Clc1ccc(-n2ccc3sc4c(c32)CCNCC4)cc1 [Example 5, 3-(4-Chloro-phenyl)-3,4,5,6,7,8-hexahydro-9-thia-3,6-diaza-cyclopenta[a]azulene] and Cc1ccc(-n2ccc3sc4c(c32)CCNCC4)cc1 [Example 13, 3-p-Tolyl-3,4,5,6,7,8-hexahydro-9-thia-3,6-diaza-cyclopenta[a]azulene] cannot be ordered by EC50: < 1000 nM for the first, < 100 nM for the second.

Cc1cccc(Cn2ccc3sc4c(c32)CCNCC4)c1 [Example 7, 3-(3-Methyl-benzyl)-3,4,5,6,7,8-hexahydro-9-thia-3,6-diaza-cyclopenta[a]azulene] and COc1cccc(Cn2ccc3sc4c(c32)CCNCC4)c1 [Example 18, 3-(3-Methoxy-benzyl)-3,4,5,6,7,8-hexahydro-9-thia-3,6-diaza-cyclopenta[a]azulene] cannot be ordered by EC50: < 10 nM for the first, < 10 nM for the second.

Cc1ccc(Cn2ccc3sc4c(c32)CCNCC4)cc1 [Example 8, 3-(4-Methyl-benzyl)-3,4,5,6,7,8-hexahydro-9-thia-3,6-diaza-cyclopenta[a]azulene] and Clc1ccc(Cn2ccc3sc4c(c32)CCNCC4)cc1 [Example 11] cannot be ordered by EC50: < 10 nM for the first, < 10 nM for the second.

COc1ccc(-n2ccc3sc4c(c32)CCNCC4)cc1 [Example 14, 3-(4-Methoxy-phenyl)-3,4,5,6,7,8-hexahydro-9-thia-3,6-diaza-cyclopenta[a]azulene] and COc1cccc(-n2ccc3sc4c(c32)CCNCC4)c1 [Example 16, 3-(3-Methoxy-phenyl)-3,4,5,6,7,8-hexahydro-9-thia-3,6-diaza-cyclopenta[a]azulene] cannot be ordered by EC50: < 100 nM for the first, < 1000 nM for the second.

Cc1cccc(-n2ccc3sc4c(c32)CCNCC4)c1 [Example 15, 3-m-Tolyl-3,4,5,6,7,8-hexahydro-9-thia-3,6-diaza-cyclopenta[a]azulene] and Clc1cccc(-n2ccc3sc4c(c32)CCNCC4)c1 [Example 17, 3-(3-Chloro-phenyl)-3,4,5,6,7,8-hexahydro-9-thia-3,6-diaza-cyclopenta[a]azulene] cannot be ordered by EC50: < 100 nM for the first, < 100 nM for the second.

COc1ccc(Cn2ccc3sc4c(c32)CCNCC4)cc1 [Example 19, 3-(4-Methoxy-benzyl)-3,4,5,6,7,8-hexahydro-9-thia-3,6-diaza-cyclopenta[a]azulene] and Clc1ccc(Cn2ccc3sc4c(c32)CCNCC4)cc1Cl [Example 23, 3-(3,4-Dichloro-benzyl)-3,4,5,6,7,8-hexahydro-9-thia-3,6-diaza-cyclopenta[a]azulene] cannot be ordered by EC50: < 100 nM for the first, < 10 nM for the second.

c1cn(CC2CCCCC2)c2c3c(sc12)CCNCC3 [Example 20, 3-Cyclohexylmethyl-3,4,5,6,7,8-hexahydro-9-thia-3,6-diaza-cyclopenta[a]azulene] and Clc1cccc(Cn2ccc3sc4c(c32)CCNCC4)c1Cl [Example 22, 3-(2,3-Dichloro-benzyl)-3,4,5,6,7,8-hexahydro-9-thia-3,6-diaza-cyclopenta[a]azulene] cannot be ordered by EC50: < 100 nM for the first, < 10 nM for the second.

c1ccc2c(Cn3ccc4sc5c(c43)CCNCC5)cccc2c1 [Example 21, 3-Naphthalen-1-ylmethyl-3,4,5,6,7,8-hexahydro-9-thia-3,6-diaza-cyclopenta[a]azulene] and c1cc(Cn2ccc3sc4c(c32)CCNCC4)c2ccncc2c1 [Example 25, 3-Isoquinolin-5-ylmethyl-3,4,5,6,7,8-hexahydro-9-thia-3,6-diaza-cyclopenta[a]azulene] cannot be ordered by EC50: < 10 nM for the first, < 10 nM for the second.

c1cnc2c(Cn3ccc4sc5c(c43)CCNCC5)cccc2c1 [Example 24, 3-Quinolin-8-ylmethyl-3,4,5,6,7,8-hexahydro-9-thia-3,6-diaza-cyclopenta[a]azulene] and c1ccc2c(Cn3ccc4sc5c(c43)CCNCC5)nccc2c1 [Example 26, 3-Isoquinolin-1-ylmethyl-3,4,5,6,7,8-hexahydro-9-thia-3,6-diaza-cyclopenta[a]azulene] cannot be ordered by EC50: < 100 nM for the first, < 10 nM for the second.

Reference: patent US9309262B2 (ABT Holding Company, priority 2013, dated 2016)
